Results as given in ChEMBL document CHEMBL3259781 (J Med Chem, 2014).

Assays:
Homo sapiens = organism: Homo sapiens; test: Selectivity ratio of Ki for human recombinant adenosine A1 receptor to Ki for human recombinant adenosine receptor A2a
Adenosine receptor A1 [1] = molecular target: T1, Adenosine receptor A1 (Homo sapiens, UniProt P30542)
T1 sequence (P30542 whole entry): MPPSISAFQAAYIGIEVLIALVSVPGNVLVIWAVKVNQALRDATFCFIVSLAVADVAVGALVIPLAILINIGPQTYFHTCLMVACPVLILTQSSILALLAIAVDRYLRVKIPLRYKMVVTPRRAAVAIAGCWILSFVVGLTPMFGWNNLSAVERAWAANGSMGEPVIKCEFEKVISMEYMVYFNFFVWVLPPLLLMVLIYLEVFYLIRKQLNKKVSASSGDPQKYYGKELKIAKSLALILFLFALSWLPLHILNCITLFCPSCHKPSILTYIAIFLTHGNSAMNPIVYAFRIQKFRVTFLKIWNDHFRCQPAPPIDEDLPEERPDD

Adenosine receptor A3 [2] = molecular target: T2, Adenosine receptor A3 (Homo sapiens, UniProt P0DMS8)
T2 sequence (P0DMS8 whole entry): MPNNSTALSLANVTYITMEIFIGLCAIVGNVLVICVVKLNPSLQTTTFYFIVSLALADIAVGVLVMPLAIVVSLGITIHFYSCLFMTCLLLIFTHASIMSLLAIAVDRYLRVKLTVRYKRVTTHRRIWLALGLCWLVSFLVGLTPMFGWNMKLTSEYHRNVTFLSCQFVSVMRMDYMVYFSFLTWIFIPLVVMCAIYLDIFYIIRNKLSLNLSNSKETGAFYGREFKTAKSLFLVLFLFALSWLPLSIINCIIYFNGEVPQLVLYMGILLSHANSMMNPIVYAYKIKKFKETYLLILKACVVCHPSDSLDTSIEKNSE

Adenosine receptor A3 [3] = molecular target: T2, Adenosine receptor A3; test: Binding affinity to human recombinant adenosine A3 receptor
Adenosine receptor A2b [4] = molecular target: T3, Adenosine receptor A2b (Homo sapiens, UniProt P29275)
T3 sequence (P29275 whole entry): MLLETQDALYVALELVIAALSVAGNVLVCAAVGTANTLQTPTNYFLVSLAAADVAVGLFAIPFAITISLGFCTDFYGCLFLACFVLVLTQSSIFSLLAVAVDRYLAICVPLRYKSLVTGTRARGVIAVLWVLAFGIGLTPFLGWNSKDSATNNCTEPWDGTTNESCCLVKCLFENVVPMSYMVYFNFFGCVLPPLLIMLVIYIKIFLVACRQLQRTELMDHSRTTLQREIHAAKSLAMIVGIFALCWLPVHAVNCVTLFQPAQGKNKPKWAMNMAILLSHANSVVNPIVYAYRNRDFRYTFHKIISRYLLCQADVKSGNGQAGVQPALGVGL

Adenosine receptor A1 [5] = molecular target: T1, Adenosine receptor A1; remark: listed apart in the source
Rattus norvegicus [6] = test: Anticataleptic activity in rat assessed as inhibition at 3 mg/kg, po after 4 hrs; assay type: functional
Rattus norvegicus [7] = test: Anticataleptic activity in rat assessed as inhibition at 3 mg/kg, po after 1 hr; assay type: functional
[8] = AUC in rat at 3 mg/kg, po; assay type: ADME, organism-based; parameters: dose 3 mg/kg, route oral; conditions: plasma
Mus musculus [9] = test: Anticataleptic activity in mouse assessed as inhibition of CGS21680-induced catalepsy at 10 mg/kg, po; assay type: functional
Adenosine receptor A2a [10] = molecular target: T4, Adenosine receptor A2a (Homo sapiens, UniProt P29274)
Adenosine receptor A2a [11] = molecular target: T4, Adenosine receptor A2a; remark: listed apart in the source
Adenosine receptor A2a [12] = molecular target: T5, Adenosine receptor A2a (Rattus norvegicus, UniProt P30543); test: Binding affinity to rat recombinant adenosine receptor A2a
Adenosine receptor A2a [13] = molecular target: T5, Adenosine receptor A2a
Mus musculus [14] = test: Anticataleptic activity in po dosed mouse assessed as inhibition of haloperidol-induced catalepsy; assay type: functional
Rattus norvegicus [15] = organism: Rattus norvegicus; test: Selectivity ratio of Ki for rat striatal adenosine A1 receptor to Ki for rat recombinant adenosine receptor A2a
Adenosine receptor A2b [16] = molecular target: T3, Adenosine receptor A2b; remark: listed apart in the source

T4 sequence (P29274 whole entry): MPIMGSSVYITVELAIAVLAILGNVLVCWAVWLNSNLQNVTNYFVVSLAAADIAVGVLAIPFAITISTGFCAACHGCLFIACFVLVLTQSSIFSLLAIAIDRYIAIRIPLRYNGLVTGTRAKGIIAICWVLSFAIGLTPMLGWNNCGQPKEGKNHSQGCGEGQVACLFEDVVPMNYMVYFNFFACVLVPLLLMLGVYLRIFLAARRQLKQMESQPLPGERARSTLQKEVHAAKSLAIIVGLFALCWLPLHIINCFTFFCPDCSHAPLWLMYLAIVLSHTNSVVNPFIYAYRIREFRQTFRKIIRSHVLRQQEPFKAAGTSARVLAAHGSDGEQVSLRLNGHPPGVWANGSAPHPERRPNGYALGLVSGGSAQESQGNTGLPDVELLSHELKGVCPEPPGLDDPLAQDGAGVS
T5 sequence (P30543 whole entry): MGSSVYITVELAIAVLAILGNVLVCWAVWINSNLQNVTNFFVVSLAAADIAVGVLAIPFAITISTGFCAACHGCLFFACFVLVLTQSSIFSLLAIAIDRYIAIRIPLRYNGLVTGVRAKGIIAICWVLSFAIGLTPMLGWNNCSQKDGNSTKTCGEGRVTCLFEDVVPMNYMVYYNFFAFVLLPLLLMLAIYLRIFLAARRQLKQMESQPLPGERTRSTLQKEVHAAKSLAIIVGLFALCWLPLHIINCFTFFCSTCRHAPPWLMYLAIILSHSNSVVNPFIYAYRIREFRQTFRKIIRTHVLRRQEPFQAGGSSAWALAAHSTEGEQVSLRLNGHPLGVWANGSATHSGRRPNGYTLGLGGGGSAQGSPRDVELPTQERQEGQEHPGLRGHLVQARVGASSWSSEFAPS

## CC1CN(c2nnc(N)nc2-c2ccccc2)CC(C)O1 (centres undefined)
Homo sapiens
  Ratio Ki: 617
Adenosine receptor A1 [1]
  Ki: 10 µM

## CCCCc1nc(N)c2nc(-n3nccn3)n(C)c2n1 [ST1535]
Adenosine receptor A3 [2]
  Ki: > 10 µM
Homo sapiens
  Ratio Ki: 12
Adenosine receptor A1 [1]
  Ki: 0.0792 µM

## CC(=O)CCc1nc(N)c2nc(-n3nccn3)n(C)c2n1
Homo sapiens
  Ratio Ki: 16
Adenosine receptor A1 [1]
  Ki: 0.192 µM

## CC1(C)CCCN(c2nnc(N)nc2-c2ccccc2)C1
Homo sapiens
  Ratio Ki: 245
Adenosine receptor A1 [1]
  Ki: 10 µM

## Nc1nc(NCCc2ccc(O)cc2)nc2nc(-c3ccco3)nn12 [ZM-241385]
Adenosine receptor A3 [2]
  Ki: > 10 µM

## CC(=O)Nc1cc(-n2cccn2)nc(-c2ccco2)n1
Homo sapiens
  Ratio Ki: 17
Adenosine receptor A1 [1]
  Ki: 0.0102 µM

## CNC(=O)c1cnn(-c2nc(N)c3ncn([C@@H]4O[C@H](CO)[C@@H](O)[C@H]4O)c3n2)c1 [REGADENOSON ANHYDROUS]
Adenosine receptor A3 [3]
  Ki: 10 µM
Adenosine receptor A2b [4]
  EC50: 10 µM
Adenosine receptor A1 [5]
  Ki: 3.77 µM

## Cc1cc(C)n(-c2cc(NC(=O)CN3CCN(C)CC3)nc(-c3nccs3)n2)n1
Homo sapiens
  Ratio Ki: 222

## COCCOc1ccc(N2CCN(CCn3cnc4c3nc(N)n3nc(-c5ccccn5)nc43)CC2)cc1
Homo sapiens
  Ratio Ki: 108
Adenosine receptor A1 [1]
  Ki: 1.36 µM

## Cc1ccc2cc(CCn3ncc4c3nc(N)n3nc(-c5ccco5)nc43)ccc2n1
Homo sapiens
  Ratio Ki: 169
Rattus norvegicus [6]
  inhibition in vivo at 3 mg/kg: 38%
Rattus norvegicus [7]
  inhibition in vivo at 3 mg/kg: 86%
Adenosine receptor A1 [1]
  Ki: 0.406 µM
[8]
  AUC: 1.41 µg·h/mL

## COC(=O)Nc1cc2c(-c3ccccc3)ccc(OC)c2o1
Mus musculus [9]
  inhibition in vivo at 10 mg/kg: 86%

## COc1ccc(N2CCOCC2)c2cc(C(=O)Nc3ccncc3)oc12
Mus musculus [9]
  inhibition in vivo at 10 mg/kg: 76%

## Nc1nc(Cl)nc2c1ncn2[C@@H]1O[C@H](CO)[C@@H](O)[C@H]1O
Adenosine receptor A2a [10]
  Ki: 0.18 µM
Adenosine receptor A3 [3]
  Ki: 0.019 µM
Adenosine receptor A1 [5]
  Ki: 0.00139 µM

## Cn1c(=O)c2c(ncn2C)n(C)c1=O [CAFFEINE]
Rattus norvegicus [6]
  inhibition in vivo at 3 mg/kg: 14%
Rattus norvegicus [7]
  inhibition in vivo at 3 mg/kg: 35%

## COc1ccc(C2CCOCC2)c2oc(NC(=O)c3ccnc(N4CCOCC4)c3)nc12
Adenosine receptor A2a [11]
  Ki: 0.025 µM
Homo sapiens
  Ratio Ki: 351
Adenosine receptor A1 [1]
  Ki: 8.78 µM

## CCNC(=O)[C@H]1O[C@@H](n2cnc3c(N)nc(C#CC[C@H]4CC[C@H](C(=O)OC)CC4)nc32)[C@H](O)[C@@H]1O [APADENOSON]
Adenosine receptor A3 [3]
  Ki: 0.045 µM
Adenosine receptor A1 [5]
  Ki: 0.077 µM

## Nc1nc(Nc2ccccc2)nc2c1ncn2[C@@H]1O[C@H](CO)[C@@H](O)[C@H]1O
Adenosine receptor A2a [12]
  Ki: 0.1 µM

## COc1cnc(N2CCOCC2)c2sc(NC(=O)c3ccc(F)cc3)nc12
Adenosine receptor A2a [11]
  Ki: 0.005 µM
Homo sapiens
  Ratio Ki: 420
Adenosine receptor A1 [1]
  Ki: 2.1 µM

## Nc1nc2ccc(Cl)cc2c2nc(-c3ccco3)nn12 [CGS-15943]
Adenosine receptor A2a [13]
  Ki: 0.0004 µM

## Nc1nc(-c2ccccc2)c2c(n1)-c1cc(OCCN3CCOCC3)ccc1C2=O
Mus musculus [14]
  ED50: 0.3 mg/kg

## CC(O)(C#Cc1cn2nc(-c3ccco3)nc2c(N)n1)c1ccccc1 (centres undefined)
Rattus norvegicus [15]
  Ratio Ki: 3.4

## Nc1nc(-c2ccco2)c2ncn(C(=O)NCc3ccccc3)c2n1
Adenosine receptor A2b [16]
  Ki: 0.112 µM
Adenosine receptor A3 [2]
  Ki: 1.47 µM
